Data published in patent US20230331737A1, “MTORC1 MODULATORS AND USES THEREOF” (Aeovian Pharmaceuticals, Inc., priority 2020, published 2023).
pIC50, pKd: −log10 of the molar value.

Key:
mTORC1 = molecular target: T1, mTORC1 (Homo sapiens, UniProt P42345+P62942); experiment: mTORC1 inhibition in PC-3 cells, AlphaLISA of p70S6K pT389 levels; assay type: cell-based; conditions: mTORC1 as measured by inhibition of p70S6K pT389 levels, read-out: mTROC1 IC50
T1 construct: endogenous in cells; host or cells: PC-3 cells
Procedure: mTORC1 inhibition was determined via analysis of phosphorylation levels of Phospho-p70 S6 kinase (p70S6K pT389) and Phospho-S6 Ribosomal Protein (pRPS6 pS240/pS244) with the corresponding AlphaLISA kits (PerkinElmer Alpha SF Ultra™ Multiplex phospho (Thr389)/total p70 S6K Assay Kit (Eu/Tb) and AlphaLISA SF Ultra™ p-Ribosomal Protein S6 (Ser240/244) Assay Kit).
%−activity=100*((Sample−Low control)/(High control−Low control))

FKBP12 = FKBP12 (Homo sapiens, UniProt P62942); experiment: SPR assay to determine binding affinity to FKBP12 (direct binding); conditions: immobilized biotinylated avi-FKBP12, single-cycle kinetics
Procedure: SPR Assay to Determine Binding Affinity to FKBP12.
Biotinylated avi-FKBP12 was immobilized on a streptavidin chip (Cytiva Series S SA) using a Biacore 8K or 8k+ (Cytiva). […] Test compounds described in Table 11 were diluted in DMSO to 100× working concentration. Each test compound was 100-fold diluted in 50 mM HEPES pH 7.5, 150 mM NaCl, 2 mM MgCl2, 1 mM DTT, 0.05% Tween-20 and a serial dilution prepared (9 concentrations, 3-fold dilutions, 0.08-500 nM). […] The compound dilutions were then injected at 100 uL/min for 120 seconds contact time in sequence with increasing concentrations. Dissociation was monitored for 3600 seconds. 50 mM HEPES pH 7.5, 150 mM NaCl, 2 mM MgCl2, 1 mM DTT, 0.05% Tween-20, 1% DMSO was used as running buffer. The single-cycle kinetics data were fit to a 1:1 binding model to measure the association rate ka (1/Ms), the dissociation rate kd (1/s) and the affinity Kd (M).

[1] = molecular target: FKBP12 ternary complex with FRB (Homo sapiens, UniProt P42345+P62942); experiment: SPR assay to characterize ternary complex formation with FKBP12 (FRB injected over compound-saturated FKBP12); assay type: binding; conditions: FRB dilutions with 100 nM test compound over immobilized FKBP12
Procedure: Biotinylated avi-FKBP12 was immobilized on a streptavidin chip (Cytiva Series S SA) using a Biacore 8K or 8k+ (Cytiva). To achieve an immobilization level of 100 RU, 0.3 μg/ml biotinylated avi-FKBP12 were injected for 80 sec at a flow rate of 10 μl/min. Serial dilution of FRB was prepared (12 concentrations, 3-fold dilutions, 0.00011-20 μM) and supplemented with 100 nM of a test compound. A-B-A injection mode was used to ensure saturation immobilized FKBP12 with respective test compound. 100 nM solution of the respective test compound was injected before FRB injection for 120 sec and during dissociation for 420 sec. The FRB dilutions were then injected 120 seconds contact time with increasing concentrations. Rapamycin was used as reference sample. 50 mM HEPES pH 7.5, 150 mM NaCl, 2 mM MgCl2, 1 mM DTT, 0.05% Tween-20, 1% DMSO was used as running buffer at a flow rate of 30 μl/min. The multi-cycle kinetics data were fit to a 1:1 binding model to measure the association rate ka (1/Ms), the dissociation rate kd (1/s) and the affinity Kd (M). In case of fast association and dissociation, steady state affinity analysis following the law of mass action was used to determine the affinity Kd (M).

Chain of FKBP12 (P62942 whole entry, species assumed): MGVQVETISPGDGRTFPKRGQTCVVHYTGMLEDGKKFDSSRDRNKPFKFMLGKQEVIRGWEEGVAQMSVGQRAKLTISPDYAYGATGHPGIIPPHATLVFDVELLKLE

Structure (SMILES): CO[C@@H]1C[C@H](C[C@@H](C)[C@@H]2CC(=O)[C@H](C)/C=C(\C)[C@@H](O)[C@@H](OC)C(=O)[C@H](C)C[C@H](C)/C=C/C=C/C=C(\C)[C@@H](OC3CC3)C[C@@H]3CC[C@@H](C)[C@@](O)(O3)C(=O)C(=O)N3CCCC[C@H]3C(=O)O2)CC[C@H]1O [Compound 120, (1R,9S,12S,15R,16E,18R,19R,21R,23S,24E,26E,28E,30S,32S,35R)-30-(cyclopropoxy)-1,18-dihydroxy-12-[(1R)-2-[(1S,3R,4R)-4-hydroxy-3-methoxy-cyclohexyl]-1-methyl-ethyl]-19-methoxy-15,17,21,23,29,35-hexamethyl-11,36-dioxa-4-azatricyclo[30.3.1.04,9]hexatriaconta-16,24,26,28-tetraene-2,3,10,14,20-pentone]
- pIC50 (mTORC1): > 9.10
- pKd (FKBP12): 9.00 to 9.52
- pKd [1]: > 6.30

Structure (SMILES): CO[C@@H]1C[C@H](C[C@@H](C)[C@@H]2CC(=O)[C@H](C)/C=C(\C)[C@@H](O)[C@@H](OC)C(=O)[C@H](C)C[C@H](C)/C=C/C=C/C=C(\C)[C@H](OCCc3ccccc3)C[C@@H]3CC[C@@H](C)[C@@](O)(O3)C(=O)C(=O)N3CCCCC3C(=O)O2)CC[C@H]1O (stereo partly drawn) [Compound 121, (1R,9S,12S,15R,16E,18R,19R,21R,23S,24E,26E,28E,30R,32S,35R)-1,18-dihydroxy-12-[(1R)-2-[(I S,3R,4R)-4-hydroxy-3-methoxy-cyclohexyl]-1-methyl-ethyl]-19-methoxy-15,17,21,23,29,35-hexamethyl-30-(2-phenylethoxy)-11,36-dioxa-4-azatricyclo[30.3.1.04,9]hexatriaconta-16,24,26,28-tetraene-2,3,10,14,20-pentone]
- pIC50 (mTORC1): 8.82 to 9.10
- pKd (FKBP12): < 9.00
- pKd [1]: > 6.30

Structure (SMILES): CO[C@@H]1C[C@H](C[C@@H](C)[C@@H]2CC(=O)[C@H](C)/C=C(\C)[C@@H](O)[C@@H](OC)C(=O)[C@H](C)C[C@H](C)/C=C/C=C/C=C(\C)[C@H](OCC3COC3)C[C@@H]3CC[C@@H](C)[C@@](O)(O3)C(=O)C(=O)N3CCCC[C@H]3C(=O)O2)CC[C@H]1O [Compound 122, (1R,9S,12S,15R,16E,18R,19R,21R,23S,24E,26E,28E,30R,32S,35R)-1,18-dihydroxy-12-[(2R)-1-[(1S,3R,4R)-4-hydroxy-3-methoxycyclohexyl]propan-2-yl]-19-methoxy-15,17,21,23,29,35-hexamethyl-30-[(oxetan-3-yl)methoxy]-11,36-dioxa-4-azatricyclo[30.3.1.04,9]hexatriaconta-16,24,26,28-tetraene-2,3,10,14,20-pentone]
- pIC50 (mTORC1): 8.82 to 9.10
- pKd (FKBP12): 9.00 to 9.52
- pKd [1]: < 5.96

Structure (SMILES): CO[C@@H]1C[C@H](C[C@@H](C)[C@@H]2CC(=O)[C@H](C)/C=C(\C)[C@@H](O)[C@@H](OC)C(=O)[C@H](C)C[C@H](C)/C=C/C=C/C=C(\C)[C@H](OC3COC3)C[C@@H]3CC[C@@H](C)[C@@](O)(O3)C(=O)C(=O)N3CCCC[C@H]3C(=O)O2)CC[C@H]1O [Compound 124, (1R,9S,12S,15R,16E,18R,19R,21R,23S,24E,26E,28E,30R,32S,35R)-1,18-dihydroxy-12-[(2R)-1-[(1S,3R,4R)-4-hydroxy-3-methoxycyclohexyl]propan-2-yl]-19-methoxy-15,17,21,23,29,35-hexamethyl-30-(oxetan-3-yloxy)-11,36-dioxa-4-azatricyclo[30.3.1.04,9]hexatriaconta-16,24,26,28-tetraene-2,3,10,14,20-pentone]
- pIC50 (mTORC1): < 8.82
- pKd (FKBP12): > 9.52
- pKd [1]: < 5.96

Structure (SMILES): CO[C@@H]1C[C@H](C[C@@H](C)[C@@H]2CC(=O)[C@H](C)/C=C(\C)[C@@H](O)[C@@H](OC)C(=O)[C@H](C)C[C@H](C)/C=C/C=C/C=C(\C)[C@H](OCCOCCO)C[C@@H]3CC[C@@H](C)[C@@](O)(O3)C(=O)C(=O)N3CCCC[C@H]3C(=O)O2)CC[C@H]1O [Compound 125, (1R,9S,12S,15R,16E,18R,19R,21R,23S,24E,26E,28E,30R,32S,35R)-1,18-dihydroxy-30-[2-(2-hydroxyethoxy)ethoxy]-12-[(1R)-2-[(1S,3R,4R)-4-hydroxy-3-methoxy-cyclohexyl]-1-methyl-ethyl]-19-methoxy-15,17,21,23,29,35-hexamethyl-11,36-dioxa-4-azatricyclo[30.3.1.04,9]hexatriaconta-16,24,26,28-tetraene-2,3,10,14,20-pentone]
- pIC50 (mTORC1): 8.82 to 9.10
- pKd (FKBP12): > 9.52
- pKd [1]: < 5.96

Structure (SMILES): CO[C@@H]1C[C@H](C[C@@H](C)[C@@H]2CC(=O)[C@H](C)/C=C(\C)[C@@H](O)[C@@H](OC)C(=O)[C@H](C)C[C@H](C)/C=C/C=C/C=C(\C)[C@H](OC3CC3)C[C@@H]3CC[C@@H](C)[C@@](O)(O3)C(=O)C(=O)N3CCCC[C@H]3C(=O)O2)CC[C@H]1OCCO [Compound 128, (1R,9S,12S,15R,16E,18R,19R,21R,23S,24E,26E,28E,30R,32S,35R)-30-(cyclopropoxy)-1,18-dihydroxy-12-[(1R)-2-[(1S,3R,4R)-4-(2-hydroxyethoxy)-3-methoxy-cyclohexyl]-1-methyl-ethyl]-19-methoxy-15,17,21,23,29,35-hexamethyl-11,36-dioxa-4-azatricyclo[30.3.1.04,9]hexatriaconta-16,24,26,28-tetraene-2,3,10,14,20-pentone]
- pIC50 (mTORC1): 8.82 to 9.10
- pKd (FKBP12): < 9.00
- pKd [1]: > 6.30

Structure (SMILES): COCCO[C@@H]1C[C@@H]2CC[C@@H](C)[C@@](O)(O2)C(=O)C(=O)N2CCCC[C@H]2C(=O)O[C@H]([C@H](C)C[C@@H]2CC[C@@H](O)[C@H](OC)C2)CC(=O)[C@H](C)/C=C(\C)[C@@H](O)[C@@H](OC)C(=O)[C@H](C)C[C@H](C)/C=C/C=C/C=C/1C [Compound 130, (1R,9S,12S,15R,16E,18R,19R,21R,23S,24E,26E,28E,30R,32S,35R)-1,18-dihydroxy-12-[(1R)-2-[(1S,3R,4R)-4-hydroxy-3-methoxy-cyclohexyl]-1-methyl-ethyl]-19-methoxy-30-(2-methoxyethoxy)-15,17,21,23,29,35-hexamethyl-11,36-dioxa-4-azatricyclo[30.3.1.04,9]hexatriaconta-16,24,26,28-tetraene-2,3,10,14,20-pentone]
- pIC50 (mTORC1): 8.82 to 9.10
- pKd (FKBP12): 9.00 to 9.52
- pKd [1]: 5.96 to 6.30

Structure (SMILES): CO[C@@H]1C[C@H](C[C@@H](C)[C@@H]2CC(=O)[C@H](C)/C=C(\C)[C@@H](O)[C@@H](OC)C(=O)[C@H](C)C[C@H](C)/C=C/C=C/C=C(\C)[C@@H](OCCCCO)C[C@@H]3CC[C@@H](C)[C@@](O)(O3)C(=O)C(=O)N3CCCC[C@H]3C(=O)O2)CC[C@H]1OCCCN1CCOCC1 [Compound 426, (1R,9S,12S,15R,16E,18R,19R,21R,23S,24E,26E,28E,30S,32S,35R)-1,18-dihydroxy-30-(4-hydroxybutoxy)-19-methoxy-12-[(1R)-2-[(1S,3R,4R)-3-methoxy-4-(3-morpholinopropoxy)cyclohexyl]-1-methyl-ethyl]-15,17,21,23,29,35-hexamethyl-11,36-dioxa-4-azatricyclo[30.3.1.0^4,9]hexatriaconta-16,24,26,28-tetraene-2,3,10,14,20-pentone]
- pIC50 (mTORC1): 8.82 to 9.10
- pKd (FKBP12): > 9.52
- pKd [1]: 5.96 to 6.30

Structure (SMILES): COCCO[C@H]1C[C@@H]2CC[C@@H](C)[C@@](O)(O2)C(=O)C(=O)N2CCCC[C@H]2C(=O)O[C@H]([C@H](C)C[C@@H]2CC[C@@H](OCCCO)[C@H](OC)C2)CC(=O)[C@H](C)/C=C(\C)[C@@H](O)[C@@H](OC)C(=O)[C@H](C)C[C@H](C)/C=C/C=C/C=C/1C [Compound 427, (1R,9S,12S,15R,16E,18R,19R,21R,23S,24E,26E,28E,30S,32S,35R)-1,18-dihydroxy-12-[(1R)-2-[(1S,3R,4R)-4-(3-hydroxypropoxy)-3-methoxy-cyclohexyl]-1-methyl-ethyl]-19-methoxy-30-(2-methoxyethoxy)-15,17,21,23,29,35-hexamethyl-11,36-dioxa-4-azatricyclo[30.3.1.04,9]hexatriaconta-16,24,26,28-tetraene-2,3,10,14,20-pentone]
- pIC50 (mTORC1): > 9.10
- pKd (FKBP12): 9.00 to 9.52
- pKd [1]: > 6.30
